Experimental findings from the supplement of paper PMC4954754 are described below.

Each structure is given as a SMILES string. ± gives the uncertainty stated by the source.

In this test the test system is HEK293T-Rex ERSE-FLuc. Kind of test: maximal ERSE-FLuc activation from dose-response fit, relative to thapsigargin (% of thapsigargin); higher = stronger activation. To be noted: 18 h. The procedure: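 Dose-response of hit compounds in HEK293T-Rex cells stably expressing ERSE-FLuc or XBP1-RLuc reporters, 18 hr treatment, 1536-well; luminescence normalised to 500 nM thapsigargin (100%) and DMSO (0%), fitted to give EC50 (M) and maximal activation; '>' marks EC50 above the top tested dose (~17 µM).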
`Cc1nn(-c2ccc(F)cc2)c2ncc(C(=O)NCc3ccco3)c(Cl)c12`: the “maximal ERSE-FLuc activation” value was 63.1 ± 4.8. The same measure for `COCCNC(=O)c1cc(-c2cccs2)on1`: 54.1 ± 14. As to `COc1ccc(C(=O)Nc2nnc(-c3cccs3)s2)cc1`, the “maximal ERSE-FLuc activation” value came out at 18.8 ± 1.5. With `CCOc1cc(C2C(C(=O)OC3CCCCC3)=C(C)NC3=C2C(=O)CC(c2ccc(OC)cc2)C3)cc(Br)c1O` (stereo unspecified), the “maximal ERSE-FLuc activation” value amounted to 70.43 ± 0.082. The same measure for `Cc1ccc(/C=N/NC(=O)c2cccc(F)c2)cc1`: 23.1 ± 1.4; for `Oc1ccc(-c2csc(-c3cccnc3)n2)cc1O`: 71.5 ± 11; for `Oc1cccc(/C=N/Nc2ccc(Cl)nn2)c1O`: 41.7 ± 1.8. The same measure for `CCN1C(=O)/C(=C\c2ccc(O)cc2O)SC1=S`: 30.9 ± 10; for `COc1ccc(-n2nnnc2SCC(N)=O)c(OC)c1`: 11.9 ± 3.1; for `CCOc1ccc(NC(=O)c2cccc(F)c2)c([N+](=O)[O-])c1`: 26.4 ± 1.6. With `CC(C)CC(c1nnnn1C1CCCC1)N1CCN(C(=O)c2ccco2)CC1` (stereo unspecified), the “maximal ERSE-FLuc activation” value came out at 14.3 ± 1.5. With `O=C(COC(=O)c1cc(O)c(O)c(O)c1)Nc1ccc(Br)cc1F` the figure was 41.7 ± 3.5; with `N#C/C(=C\c1ccc(O)c(O)c1)C(=O)Nc1ccccc1`, 52.2 ± 13; with `O=[N+]([O-])c1ccc(/C=C/c2ccc(O)cc2)cc1`, 25.8 ± 4.6.

Consider `Cc1ccc(O)c(N/C=C/C(=O)c2cccs2)c1`, for which the “maximal ERSE-FLuc activation” value amounted to 225 ± 15. For `CN(C)c1ccc(C2C(C#N)=C(N)Oc3c2sc2ccccc32)cc1[N+](=O)[O-]` (stereo unspecified), the “maximal ERSE-FLuc activation” value was 15.8 ± 4.9. As for `N#Cc1c(NC(=O)c2cnccn2)sc2c1CCCC2`, the “maximal ERSE-FLuc activation” value turned out to be 18.9 ± 4.8. With `C/C(=N\NC(=O)c1n[nH]c2c1CCCC2)c1ccc2ccccc2c1` the figure was 23.2 ± 3.1; with `COc1ccccc1/C=N/Nc1nc(-c2ccccc2)cc(=O)[nH]1`, 28.3 ± 0.49; with `Cc1ccc(/C=C(\C#N)C(=O)Nc2cccc(Cl)c2)o1`, 14.7 ± 3.1.

With `COc1ccccc1-c1nnc(Nc2nc3c(OC)cccc3s2)o1`, the “maximal ERSE-FLuc activation” value was found to be 32.7 ± 3. The same measure for `Cc1cc(C)nc(/N=C(\N)Nc2ccc(OCCC(C)C)cc2)n1`: 45.3 ± 7.7; for `Cc1ccc(O)c(N=CC2=C(O)c3ccccc3C2=O)c1`: 74.8 ± 16; for `Cn1cccc1/C=C1/SC(=Nc2ccccc2)NC1=O`: 40.8 ± 2.8. The same measure for `COc1cccc(/C=N/NC(=O)c2ccc(NC(=O)c3ccc(C)cc3)cc2)c1O`: 6.5 ± 1.7; for `CC(=O)Nc1ccc2nc(-c3ccc(OC(C)=O)cc3)sc2c1`: 15.7 ± 1.8. The same measure for `O=C1N/C(=C\c2ccc(O)cc2)C(O)=C1C=NCc1ccccc1`: 40.4 ± 7.5. On to `NN1C(=O)/C(=C/c2ccc(O)c(O)c2)SC1=S`, for which the “maximal ERSE-FLuc activation” value was determined as 53.7 ± 2.2. For the molecule `N#Cc1c(NC(=O)c2cccc(F)c2)sc2c1CCC2`, the “maximal ERSE-FLuc activation” value turned out to be 19.5 ± 3.1. For the molecule `COc1ccc(NC(=O)/C(Cl)=C\c2ccccc2)cc1`, the “maximal ERSE-FLuc activation” value is 22.2 ± 2.3. For the molecule `COc1cccc(C2=NOC(C(=O)Nc3cc(C)ccc3O)C2)c1` (stereo unspecified), the “maximal ERSE-FLuc activation” value worked out at 92.8 ± 22. The same measure for `Cc1ccc(/C=N/NC(=O)c2cccc(Cl)c2)cc1`: 36.9 ± 7.8; for `NC(=O)c1c(NC(=O)COc2ccccc2)sc2c1CCC2`: 16.2 ± 1.4. The same measure for `Oc1ccc(-c2cnc3c(Nc4ccc5[nH]ccc5c4)nccn23)cc1`: 21.4 ± 3.8. Consider `N#Cc1c(NC(=O)c2ccc3ncsc3c2)sc2c1CCC2`, for which the “maximal ERSE-FLuc activation” value came to 22.2 ± 2.5.

As to `CCCNC(=O)c1ccc2nc(-c3ccc4[nH]ccc4c3)sc2c1`, the “maximal ERSE-FLuc activation” value was found to be 13.9 ± 6.1. Take `CCOc1ccc(NC(=O)c2ccc3c(c2)OCO3)c([N+](=O)[O-])c1`: the “maximal ERSE-FLuc activation” value worked out at 14.7 ± 3. With `CNC(=O)c1ccccc1Nc1cc(NC(=O)Cc2ccc(F)c(F)c2)ncc1C(F)(F)F` the figure was 3.28 ± 7.2; with `COc1cccc(C(=O)Nc2nc3ccc(C)cc3s2)c1`, 31.7 ± 6.6; with `CCc1ccc(NC(=O)/C=C/c2ccco2)cc1`, 19.3 ± 2.3. With `COC(=O)c1ccc2c(COC(C)=O)c(OC(C)=O)ccc2c1COC(C)=O` the figure was 70.9 ± 16; with `O=C1NC(=Nc2ccc(F)cc2)S/C1=C\c1ccc(O)c(O)c1`, 85.9 ± 7.7; with `CC1(C)Cc2ccccc2/C(=C/C(=O)C(=O)N/N=C/c2ccc(O)c(O)c2)N1`, 39 ± 3.2. With `COc1cc(/C=C/c2ccc(O)c(OC)c2)ccc1O` the figure was 31.1 ± 6.9. For `O=C(N/N=C/c1ccc(O)c(O)c1)c1ccc(Br)cc1`, the “maximal ERSE-FLuc activation” value stood at 51.2 ± 4.4. The same measure for `O=C(Nc1ccccc1O)c1ccc(NS(=O)(=O)c2cccc3cccnc23)cc1`: 85.2 ± 7.5. As to `O=C(N/N=C/c1ccc(Cl)cc1Cl)c1ccc(O)c(O)c1`, the “maximal ERSE-FLuc activation” value is 32.6 ± 8. The same measure for `COc1ccccc1OCC(=O)Nc1cc(C)ccc1O`: 45.8 ± 4.2; for `O=C(N/N=C\c1ccccc1[N+](=O)[O-])c1[nH]nc2c1CCc1ccccc1-2`: 23 ± 4.3. With `CCCNC(=O)c1cc(-c2ccc(F)cc2)on1` the figure was 65.8 ± 6.4. Turning to `O=C(c1ccccc1)c1c(O)ccc2c(C(=O)c3ccccc3)c(O)ccc12`, the “maximal ERSE-FLuc activation” value was found to be 32.5 ± 3.7. For the molecule `COc1ccccc1-c1cc(C(=O)Nc2cc(C)ccc2O)no1`, the “maximal ERSE-FLuc activation” value amounted to 25.7 ± 7.9. Take `O=C(CCCN1CCC2(CC1)C(=O)N(Cc1cccc(F)c1)CN2c1ccccc1)c1ccc(F)cc1`: the “maximal ERSE-FLuc activation” value came out at 187 ± 19.

`O=C(NCCc1ccc(O)cc1)c1ccc2nc(-c3csc4ccccc34)sc2c1`: the “maximal ERSE-FLuc activation” value turned out to be 99.4 ± 20.

Turning to `O=c1/c(=C/c2ccc(O)c(O)c2)sc2nc3ccccc3n12`, the “maximal ERSE-FLuc activation” value came to 59.2 ± 3.9. In the case of `COc1cccc(C(=O)Nc2sc3c(c2C#N)CC(C)CC3)c1` (stereo unspecified), the “maximal ERSE-FLuc activation” value was 23.5 ± 8. With `O=C(N/N=C/c1ccc(Cl)cc1)c1n[nH]c2c1CCCC2` the figure was 21.7 ± 1.7; with `COc1ccc2[nH]c3c(N4CCCCC4)ncnc3c2c1`, 27.4 ± 2.9. For `O=C(Nc1ccc(O)cc1)c1ccc2ccccc2c1`, the “maximal ERSE-FLuc activation” value amounted to 31.4 ± 2.5. Consider `N#CC1=C(N)Oc2c(ccc3ccccc23)C1c1ccsc1` (stereo unspecified), for which the “maximal ERSE-FLuc activation” value was 21.2 ± 5.6.

`Cc1ccc(C(=O)Nc2sc3c(c2C#N)CCC3)cc1`: the “maximal ERSE-FLuc activation” value is 17.6 ± 5. `CCCCCOc1ccc(N/C(N)=N/c2nc(C)cc(C)n2)cc1`: the “maximal ERSE-FLuc activation” value stood at 68 ± 8.8. Take `CCCCCC(=O)Nc1ccc(C(=O)Nc2ccccc2O)cc1`: the “maximal ERSE-FLuc activation” value came to 112 ± 10. With `O=C(Nc1ccccc1O)c1cc2ccccc2o1` the figure was 40.6 ± 8.2; with `Nc1ccccc1NC(=O)c1ccc(C(=O)Nc2ccccc2N)cc1`, 65.8 ± 3.4; with `CCCCNNC(=O)c1ccc(Br)cc1`, 95.4 ± 25. The same measure for `O=C(N/N=C/c1cccc(O)c1O)c1ccccc1I`: 39.5 ± 4.5. With `CCOc1ccc(/C=C(\C#N)c2[nH]nc(N)c2C#N)cc1OCC` the figure was 59.8 ± 6.2. As to `COc1cccc(-c2nc3ccc(N)cc3[nH]2)c1`, the “maximal ERSE-FLuc activation” value came out at 20.8 ± 3.1. The same measure for `COc1cc2ccccc2cc1C(=O)N/N=C/c1cccs1`: 21.5 ± 3.6; for `Cc1ccc(O)c(NC(=O)c2cc(-c3ccc(O)cc3)on2)c1`: 58.9 ± 2.1.

Consider `CN(C)c1ccc(/C=N/NC(=O)c2cccc(Br)c2)cc1`, for which the “maximal ERSE-FLuc activation” value came to 19.2 ± 4.8.

Regarding `O=C(CCCCCCC(=O)Nc1ccccc1)NO`, the “maximal ERSE-FLuc activation” value came to 132 ± 25.

As for `CC(=O)NC1C(OC2OC(CC(O)C3OC(n4ccc(=O)[nH]c4=O)C(O)C3O)C(O)C(O)C2NC(=O)/C=C\CCCCCCCCCC(C)C)OC(CO)C(O)C1O` (stereo unspecified), the “maximal ERSE-FLuc activation” value stood at 139 ± 19. With `CC(Oc1ccc(Cl)cc1Cl)C(=O)NNC(=O)c1ccc(O)c(O)c1` (stereo unspecified) the figure was 50 ± 8.3. Consider `Cc1ccc2c(N)c(C(=O)c3ccc4c(c3)OCO4)sc2n1`, for which the “maximal ERSE-FLuc activation” value was 25.1 ± 2.7.

As for `CCCNc1ccnc(N2CCc3ccccc3C2)n1`, the “maximal ERSE-FLuc activation” value came to 12 ± 7.5.

On to `O=C(NCCc1ccccc1)c1cc(-c2cccs2)on1`, for which the “maximal ERSE-FLuc activation” value worked out at 64.6 ± 9.1.

As to `Cc1ccc(O)c(NC(=S)NC(=O)/C=C/c2ccco2)c1`, the “maximal ERSE-FLuc activation” value turned out to be 30.2 ± 7.3. For `COc1cccc(-c2cc(C(=O)Nc3cc(C)ccc3O)no2)c1`, the “maximal ERSE-FLuc activation” value amounted to 46.2 ± 7.9. The same measure for `Cc1ccc(O)c(NC(=O)CSc2n[nH]c(C)c2[N+](=O)[O-])c1`: 98.8 ± 16. The same measure for `COc1cccc(/C=N/NC(=O)c2n[nH]c3c2CCCC3)c1`: 29.6 ± 6.7; for `O=C(N/N=C/c1cccc(Cl)c1Cl)c1ccccc1O`: 6.19 ± 0.61; for `COc1ccc(-c2csc(-c3ccc(O)cc3)n2)cc1`: 30.9 ± 6.5.

`N#C/C(=C/c1ccc(O)c(O)c1)c1nc2ccccc2[nH]1`: the “maximal ERSE-FLuc activation” value was 29 ± 5.2. The same measure for `COc1cccc(Nc2nc(-c3ccc(OC)c(F)c3)cs2)c1`: 19.7 ± 3.5.
